Experimental data taken from PMC11062922 (Nature Chemical Biology, 2023).
Like-named read-outs stand apart in the source and are kept apart here.

Legend:
[1] = target: T1, endogenous kinases and other proteins enriched by Kinobeads from mixed lysates of K-562, COLO-205, MV-4-11, SK-N-BE(2) and OVCAR-8 (Homo sapiens, UniProt P07948); assay: Kinobeads competition binding profiling, two doses (100 nM and 1 µM); conditions: read-out: Lestaurtinib Drugmatrix value (apparent Kd), Gene Name LYN; target LYN; each column = one Lestaurtinib control run_replicate;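 also: inhibitor preincubated 45 min at 4 °C in cell lysate, then bead pulldown. Bound protein quantified by label-free mass spectrometry relative to DMSO vehicle control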
T1 construct: endogenous in cells

CSK = target: T2, CSK (Homo sapiens, UniProt P41240); assay: Kinobeads two-dose competition binding: CSK; conditions: read-out: Lestaurtinib Drugmatrix value, Gene Name CSK
T2 construct: endogenous in cells

AURKB = target: T3, AURKB (Homo sapiens, UniProt Q96GD4); assay: Kinobeads two-dose competition binding: AURKB; conditions: read-out: Lestaurtinib Drugmatrix value, Gene Name AURKB
T3 construct: endogenous in cells

ULK3 = target: T4, ULK3 (Homo sapiens, UniProt Q6PHR2); assay: Kinobeads two-dose competition binding: ULK3
T4 construct: endogenous in cells

FRK = target: T5, FRK (Homo sapiens, UniProt P42685); assay: Kinobeads two-dose competition binding: FRK; conditions: read-out: Lestaurtinib Drugmatrix value, Gene Name FRK; target FRK; each column = one Lestaurtinib control replicate (batch_R1-R3)
T5 construct: endogenous in cells

PIK3CA = target: T6, PIK3CA (Homo sapiens, UniProt P42336); assay: Kinobeads competition binding, Lestaurtinib control replicates: PIK3CA; conditions: read-out: Lestaurtinib Drugmatrix value; Gene Name PIK3CA; one column per experiment number and replicate (R1-R3)
T6 construct: a mixture of lysates from five cancer cell lines; endogenous in cells

PRKACG = target: T7, PRKACG (Homo sapiens, UniProt P22612); assay: Kinobeads competition binding, Lestaurtinib control replicates: PRKACG; conditions: read-out: Lestaurtinib Drugmatrix value; Gene Name PRKACG; one column per experiment number and replicate (R1-R3)
T7 construct: endogenous in cells

CSNK1D = target: T8, CSNK1D (Homo sapiens, UniProt P48730); assay: Kinobeads full dose-response competition binding: CSNK1D; conditions: Gene Name CSNK1D
T8 construct: endogenous in cells

RIPK3 = target: T9, RIPK3 (Homo sapiens, UniProt Q9Y572); assay: Kinobeads full dose-response competition binding: RIPK3; conditions: Gene Name RIPK3
T9 construct: endogenous in cells

TGFBR2 = target: T10, TGFBR2 (Homo sapiens, UniProt P37173); assay: Kinobeads full dose-response competition binding: TGFBR2; conditions: Gene Name TGFBR2
T10 construct: endogenous in cells

PRKCQ = target: T11, PRKCQ (Homo sapiens, UniProt Q04759); assay: Kinobeads full dose-response competition binding: PRKCQ; conditions: Gene Name PRKCQ
T11 construct: to maximize the representation of endogenous proteins; endogenous in cells

[2] = target: T12, endogenous kinases and other proteins enriched by Kinobeads from mixed lysates of K-562, COLO-205, MV-4-11, SK-N-BE(2) and OVCAR-8 (Homo sapiens, UniProt O14578); assay: Kinobeads competition binding profiling, two doses (100 nM and 1 µM); conditions: CIT;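 also: inhibitor preincubated 45 min at 4 °C in cell lysate, then bead pulldown. Bound protein quantified by label-free mass spectrometry relative to DMSO vehicle control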
T12 construct: to maximize the representation of endogenous proteins; endogenous in cells

[3] = target: T13, endogenous kinases and other proteins enriched by Kinobeads from mixed lysates of K-562, COLO-205, MV-4-11, SK-N-BE(2) and OVCAR-8 (Homo sapiens, UniProt P54646); assay: as above; conditions: AMPK-alpha2
T13 construct: endogenous in cells

CSNK2A1 = target: T14, CSNK2A1 (Homo sapiens, UniProt P68400); assay: NanoBRET in-cell target engagement in HEK293T cells: CSNK2A1; assay type: cell-based
T14 construct: full-length PKN3, CSNK2A1 or CSNK2A2 ORF; host or cells: HEK293T
Protocol: The NanoBRET assay was performed as described previously[28],[58]. In brief, full-length PKN3, CSNK2A1 or CSNK2A2 ORF (PKN3 vector was a kind gift of Promega, Vectors for […]: NV2981, NV1191) cloned in frame with a C-terminal NanoLuc-fusion, respectively, were transfected into HEK293T cells using FuGENE HD (Promega, E2312) and proteins were allowed to express for 20 h. Serially diluted inhibitor and NanoBRET Kinase Tracer K5 (Promega, N2530) at 500 nM (PKN3) or NanoBRET Kinase Tracer K10 (Promega, N2840) at 500 nM ([…]) were pipetted into 384-well plates using an Echo acoustic dispenser (Labcyte). The PKN3, CSNK2A1 or CSNK2A2 transfected cells were added at a density of 2 × 10^5 cells per ml after trypsinization and resuspending in Opti-MEM without phenol red (Life Technologies). The system was allowed to equilibrate for 2 h at 37 °C and 5% CO2 before BRET measurements. BRET signaling was measured by adding NanoBRET NanoGlo Substrate and Extracellular NanoLuc Inhibitor (Promega) according to the manufacturer’s protocol. Filtered luminescence was measured on a PHERAstar plate reader (BMG Labtech) equipped with a luminescence filter pair (450 nm BP filter (donor) and 610 LP filter (acceptor)). Competitive displacement data were then graphed using GraphPad Prism software (v.5.01) using a three-parameter curve fit with the following equation Y=bottom+(top−bottom)/1+10^logIC50−X×hillslope
Experiments were performed with at least two biological and two technical replicates.

[4] = EC50 with Correction, doses in nM, read-out: apparent Kd
[5] = eight-dose curve fit, doses in nM

T8 sequence (P48730 whole entry): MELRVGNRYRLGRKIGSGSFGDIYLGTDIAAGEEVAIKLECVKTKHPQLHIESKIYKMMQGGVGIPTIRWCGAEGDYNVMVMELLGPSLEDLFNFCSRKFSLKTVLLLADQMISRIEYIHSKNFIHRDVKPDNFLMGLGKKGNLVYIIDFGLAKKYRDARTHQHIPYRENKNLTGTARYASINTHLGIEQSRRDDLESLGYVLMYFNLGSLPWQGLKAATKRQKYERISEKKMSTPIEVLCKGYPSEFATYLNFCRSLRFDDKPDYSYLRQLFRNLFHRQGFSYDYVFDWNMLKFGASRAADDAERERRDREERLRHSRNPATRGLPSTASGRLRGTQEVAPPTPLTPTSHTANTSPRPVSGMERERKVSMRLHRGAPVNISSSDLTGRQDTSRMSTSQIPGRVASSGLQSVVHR
T11 sequence (Q04759 whole entry): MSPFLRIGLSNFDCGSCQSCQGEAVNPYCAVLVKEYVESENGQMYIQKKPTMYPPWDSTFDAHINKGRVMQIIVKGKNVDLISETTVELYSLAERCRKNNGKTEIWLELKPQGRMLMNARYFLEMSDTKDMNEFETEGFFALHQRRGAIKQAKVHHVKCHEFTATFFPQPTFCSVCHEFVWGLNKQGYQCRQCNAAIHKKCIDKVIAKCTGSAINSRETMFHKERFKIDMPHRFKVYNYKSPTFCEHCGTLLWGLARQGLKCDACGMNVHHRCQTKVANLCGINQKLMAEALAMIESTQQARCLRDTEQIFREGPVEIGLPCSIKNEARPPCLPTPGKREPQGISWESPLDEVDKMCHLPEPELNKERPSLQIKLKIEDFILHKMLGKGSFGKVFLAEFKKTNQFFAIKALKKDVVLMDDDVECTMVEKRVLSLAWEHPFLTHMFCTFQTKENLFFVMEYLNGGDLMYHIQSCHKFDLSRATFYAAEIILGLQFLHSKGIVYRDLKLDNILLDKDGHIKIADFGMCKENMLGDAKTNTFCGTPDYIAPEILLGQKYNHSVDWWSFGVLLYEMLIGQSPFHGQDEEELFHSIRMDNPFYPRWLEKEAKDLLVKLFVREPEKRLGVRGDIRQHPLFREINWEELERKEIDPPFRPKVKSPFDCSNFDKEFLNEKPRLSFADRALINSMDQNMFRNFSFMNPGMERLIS
T10 sequence (P37173 23-567): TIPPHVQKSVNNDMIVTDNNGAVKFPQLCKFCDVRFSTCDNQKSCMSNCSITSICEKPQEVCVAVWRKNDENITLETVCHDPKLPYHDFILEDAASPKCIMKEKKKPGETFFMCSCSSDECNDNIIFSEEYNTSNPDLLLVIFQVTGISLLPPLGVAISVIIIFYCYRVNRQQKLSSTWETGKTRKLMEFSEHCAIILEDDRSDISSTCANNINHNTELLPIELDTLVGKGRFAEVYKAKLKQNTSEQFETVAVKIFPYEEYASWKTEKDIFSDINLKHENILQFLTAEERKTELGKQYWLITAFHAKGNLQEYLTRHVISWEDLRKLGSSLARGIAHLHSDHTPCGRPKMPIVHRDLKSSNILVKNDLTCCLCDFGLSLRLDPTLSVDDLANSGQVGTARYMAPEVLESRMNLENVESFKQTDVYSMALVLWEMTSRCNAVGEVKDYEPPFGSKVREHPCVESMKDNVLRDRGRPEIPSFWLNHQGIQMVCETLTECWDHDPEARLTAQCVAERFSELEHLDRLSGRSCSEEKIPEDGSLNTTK
T14 sequence (P68400 whole entry): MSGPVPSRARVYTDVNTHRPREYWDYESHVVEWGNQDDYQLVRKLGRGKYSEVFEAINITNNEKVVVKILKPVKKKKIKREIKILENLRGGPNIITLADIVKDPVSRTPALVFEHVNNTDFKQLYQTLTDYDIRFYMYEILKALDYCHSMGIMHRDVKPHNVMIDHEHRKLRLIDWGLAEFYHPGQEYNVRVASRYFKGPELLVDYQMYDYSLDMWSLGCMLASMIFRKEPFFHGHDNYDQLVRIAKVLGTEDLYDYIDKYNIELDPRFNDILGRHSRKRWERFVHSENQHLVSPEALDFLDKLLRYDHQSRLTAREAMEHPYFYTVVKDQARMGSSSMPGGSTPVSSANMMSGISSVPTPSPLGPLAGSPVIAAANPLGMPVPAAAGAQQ
T9 sequence (Q9Y572 whole entry): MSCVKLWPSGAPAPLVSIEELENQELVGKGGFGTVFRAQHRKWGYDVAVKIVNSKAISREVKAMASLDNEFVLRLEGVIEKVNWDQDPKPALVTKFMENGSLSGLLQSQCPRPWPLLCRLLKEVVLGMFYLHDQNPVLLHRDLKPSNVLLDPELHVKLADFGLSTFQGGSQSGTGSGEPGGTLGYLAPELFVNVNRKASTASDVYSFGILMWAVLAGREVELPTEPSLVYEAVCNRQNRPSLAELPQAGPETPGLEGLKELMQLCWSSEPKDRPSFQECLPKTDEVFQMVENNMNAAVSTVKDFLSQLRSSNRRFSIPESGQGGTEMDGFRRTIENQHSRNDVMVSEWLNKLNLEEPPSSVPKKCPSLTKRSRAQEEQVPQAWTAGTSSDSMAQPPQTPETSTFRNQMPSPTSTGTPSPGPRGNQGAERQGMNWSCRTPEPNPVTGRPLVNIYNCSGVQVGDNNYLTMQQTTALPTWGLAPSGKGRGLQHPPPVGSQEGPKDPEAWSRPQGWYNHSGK
T4 sequence (Q6PHR2 whole entry): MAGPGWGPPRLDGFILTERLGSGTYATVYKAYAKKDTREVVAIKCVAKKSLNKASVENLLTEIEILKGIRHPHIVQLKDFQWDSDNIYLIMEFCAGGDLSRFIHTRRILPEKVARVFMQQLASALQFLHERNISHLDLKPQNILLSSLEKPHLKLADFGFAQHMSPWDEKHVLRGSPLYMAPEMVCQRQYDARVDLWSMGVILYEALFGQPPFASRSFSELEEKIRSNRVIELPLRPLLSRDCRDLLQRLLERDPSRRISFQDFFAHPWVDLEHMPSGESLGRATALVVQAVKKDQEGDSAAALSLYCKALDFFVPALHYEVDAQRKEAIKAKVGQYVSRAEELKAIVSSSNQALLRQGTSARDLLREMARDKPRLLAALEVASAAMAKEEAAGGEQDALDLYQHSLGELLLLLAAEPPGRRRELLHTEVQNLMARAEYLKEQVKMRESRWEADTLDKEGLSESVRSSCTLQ
T5 sequence (P42685 whole entry): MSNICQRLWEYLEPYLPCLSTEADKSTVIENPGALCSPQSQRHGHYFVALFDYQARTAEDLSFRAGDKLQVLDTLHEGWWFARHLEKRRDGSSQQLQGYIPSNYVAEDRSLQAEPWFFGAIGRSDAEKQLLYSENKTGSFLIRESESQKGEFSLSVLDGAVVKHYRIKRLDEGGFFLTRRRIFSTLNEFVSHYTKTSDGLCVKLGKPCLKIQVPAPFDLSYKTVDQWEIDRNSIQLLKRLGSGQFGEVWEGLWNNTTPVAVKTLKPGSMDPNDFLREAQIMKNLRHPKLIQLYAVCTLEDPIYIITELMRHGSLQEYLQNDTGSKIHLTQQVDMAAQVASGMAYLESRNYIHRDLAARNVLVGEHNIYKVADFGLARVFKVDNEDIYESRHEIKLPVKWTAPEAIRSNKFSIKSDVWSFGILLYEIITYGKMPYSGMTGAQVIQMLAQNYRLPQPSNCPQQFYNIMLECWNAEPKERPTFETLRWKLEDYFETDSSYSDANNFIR
T13 sequence (P54646 whole entry): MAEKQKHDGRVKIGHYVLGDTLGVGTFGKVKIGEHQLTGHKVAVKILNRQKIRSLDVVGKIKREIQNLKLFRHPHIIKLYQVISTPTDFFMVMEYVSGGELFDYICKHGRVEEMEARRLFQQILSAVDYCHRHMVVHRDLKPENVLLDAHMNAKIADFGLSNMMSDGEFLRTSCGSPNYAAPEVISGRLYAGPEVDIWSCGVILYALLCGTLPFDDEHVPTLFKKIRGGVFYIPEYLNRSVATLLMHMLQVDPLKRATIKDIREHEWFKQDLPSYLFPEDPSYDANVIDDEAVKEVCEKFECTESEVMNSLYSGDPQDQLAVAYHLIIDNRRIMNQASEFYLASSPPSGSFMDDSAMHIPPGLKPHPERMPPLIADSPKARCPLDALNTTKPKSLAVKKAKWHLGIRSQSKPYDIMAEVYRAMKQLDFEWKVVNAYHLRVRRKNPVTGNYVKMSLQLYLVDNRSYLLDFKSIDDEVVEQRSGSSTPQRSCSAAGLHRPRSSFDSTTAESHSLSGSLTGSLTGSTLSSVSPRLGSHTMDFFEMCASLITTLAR
T7 sequence (P22612 whole entry): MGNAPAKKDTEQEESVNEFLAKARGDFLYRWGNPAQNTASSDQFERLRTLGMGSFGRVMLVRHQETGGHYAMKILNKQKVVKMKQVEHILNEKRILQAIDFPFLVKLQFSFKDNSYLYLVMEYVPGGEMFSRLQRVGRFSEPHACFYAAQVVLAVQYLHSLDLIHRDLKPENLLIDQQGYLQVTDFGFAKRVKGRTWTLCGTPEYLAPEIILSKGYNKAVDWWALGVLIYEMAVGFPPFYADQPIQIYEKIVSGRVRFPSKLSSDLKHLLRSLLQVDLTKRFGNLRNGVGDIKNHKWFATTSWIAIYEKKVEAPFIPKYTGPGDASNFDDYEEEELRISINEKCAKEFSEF
T2 sequence (P41240 whole entry): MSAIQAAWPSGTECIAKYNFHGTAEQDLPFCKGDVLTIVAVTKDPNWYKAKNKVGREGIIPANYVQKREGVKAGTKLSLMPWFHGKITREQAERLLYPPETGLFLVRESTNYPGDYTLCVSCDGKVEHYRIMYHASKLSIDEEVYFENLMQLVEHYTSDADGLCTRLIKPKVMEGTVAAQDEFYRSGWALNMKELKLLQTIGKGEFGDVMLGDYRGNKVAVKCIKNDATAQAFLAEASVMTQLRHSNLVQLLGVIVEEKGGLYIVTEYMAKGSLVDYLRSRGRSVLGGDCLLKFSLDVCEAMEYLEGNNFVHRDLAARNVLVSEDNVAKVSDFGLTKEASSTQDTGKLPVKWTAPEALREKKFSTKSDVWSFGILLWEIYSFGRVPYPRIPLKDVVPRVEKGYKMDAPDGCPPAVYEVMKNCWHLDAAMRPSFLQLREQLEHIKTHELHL

C[C@]12O[C@H](C[C@]1(O)CO)n1c3ccccc3c3c4c(c5c6ccccc6n2c5c31)CNC4=O [Lestaurtinib]
potency estimated from few doses [1]: 808 nM | potency estimated from few doses (CSK): 526 nM | potency estimated from few doses (AURKB): 146 nM | potency estimated from few doses (ULK3; read-out: Lestaurtinib Drugmatrix value, Gene Name ULK3, repeated control pulldowns; each column = experiment id and replicate (Lestaurtinib_02339_R1 ... Lestaurtinib_03260_R3)): 113 nM | potency estimated from few doses (ULK3; read-out: Lestaurtinib Drugmatrix value, Gene Name ULK3; repeated control pulldowns; each column = experiment id and replicate (Lestaurtinib_02339_R1 ... Lestaurtinib_03260_R3)): 218 nM | potency estimated from few doses (FRK): 751 nM | potency estimated from few doses (PIK3CA): 156 nM | potency estimated from few doses (PRKACG): 769 nM

NCc1ccc(-c2nc(-c3ccncc3)c(-c3ccc(Cl)c(O)c3)[nH]2)cc1 [SB-476429-A]
Relative Intensity 0.3nM (CSNK1D; 0.3nM compound, DMSO = 1): 0.9053 | Relative Intensity 1nM (CSNK1D; 1nM compound, DMSO = 1): 1.1 | Relative Intensity 3nM (CSNK1D; 3nM compound, DMSO = 1): 1.076 | Relative Intensity 10nM (CSNK1D; 10nM compound, DMSO = 1): 1.106 | Relative Intensity 30nM (CSNK1D; 30nM compound, DMSO = 1): 0.9763 | Relative Intensity 100nM (CSNK1D; 100nM compound, DMSO = 1): 0.9322 | Relative Intensity 300nM (CSNK1D; 300nM compound, DMSO = 1): 0.7176 | Relative Intensity 1000nM (CSNK1D; 1000nM compound, DMSO = 1): 0.4933 | Kd (CSNK1D; [4]): 300 nM | EC50 (CSNK1D; [5]): 300 nM | Relative Intensity 0.3nM (RIPK3; 0.3nM compound, DMSO = 1): 1.0435 | Relative Intensity 1nM (RIPK3; 1nM compound, DMSO = 1): 1.078 | Relative Intensity 3nM (RIPK3; 3nM compound, DMSO = 1): 1.023 | Relative Intensity 10nM (RIPK3; 10nM compound, DMSO = 1): 0.8405 | Relative Intensity 30nM (RIPK3; 30nM compound, DMSO = 1): 0.9631 | Relative Intensity 100nM (RIPK3; 100nM compound, DMSO = 1): 1.023 | Relative Intensity 300nM (RIPK3; 300nM compound, DMSO = 1): 0.7216 | Relative Intensity 1000nM (RIPK3; 1000nM compound, DMSO = 1): 0.4701 | Kd (RIPK3; [4]): 289 nM | EC50 (RIPK3; [5]): 296 nM | Relative Intensity 0.3nM (TGFBR2; 0.3nM compound, DMSO = 1): 0.9776 | Relative Intensity 1nM (TGFBR2; 1nM compound, DMSO = 1): 1.003 | Relative Intensity 3nM (TGFBR2; 3nM compound, DMSO = 1): 1.034 | Relative Intensity 10nM (TGFBR2; 10nM compound, DMSO = 1): 1.093 | Relative Intensity 30nM (TGFBR2; 30nM compound, DMSO = 1): 0.9102 | Relative Intensity 100nM (TGFBR2; 100nM compound, DMSO = 1): 0.8621 | Relative Intensity 300nM (TGFBR2; 300nM compound, DMSO = 1): 0.7152 | Relative Intensity 1000nM (TGFBR2; 1000nM compound, DMSO = 1): 0.41 | Kd (TGFBR2; [4]): 767 nM | EC50 (TGFBR2; [5]): 871 nM

CCn1c(-c2nonc2N)nc2c(C#CC(C)(C)O)nc(OCCN)cc21 [GSK902056A]
Relative Intensity 0.3nM (PRKCQ; 0.3nM compound, DMSO = 1): 0.9348 | Relative Intensity 1nM (PRKCQ; 1nM compound, DMSO = 1): 1.037 | Relative Intensity 3nM (PRKCQ; 3nM compound, DMSO = 1): 0.9215 | Relative Intensity 10nM (PRKCQ; 10nM compound, DMSO = 1): 0.8429 | Relative Intensity 30nM (PRKCQ; 30nM compound, DMSO = 1): 0.5346 | Relative Intensity 100nM (PRKCQ; 100nM compound, DMSO = 1): 0.4204 | Relative Intensity 300nM (PRKCQ; 300nM compound, DMSO = 1): 0 | Relative Intensity 1000nM (PRKCQ; 1000nM compound, DMSO = 1): 0 | Kd (PRKCQ; [4]): 58.7 nM | EC50 (PRKCQ; [5]): 58.7 nM

COc1cc(Nc2ncc3c(C)nc(-c4cc5ccccc5[nH]4)n3n2)cc(OC)c1OC [GW869516X]
Kinobeads Data [2]: no target | Kinobeads Data [3]: no target | IC50 (CSNK2A1; CSNK2A1, replicate 1, read-out: NanoBRET Rep1): 471 nM | IC50 (CSNK2A1; CSNK2A1, replicate 2, read-out: NanoBRET Rep2): 421 nM | IC50 (CSNK2A1; HEK293T cells, in-cell target engagement, read-out: IC50 CSNK2A1 NanoBRET): 446 nM
